The text below walks through data of patent US8986696B2, “Trans-capsular administration of p38 map kinase inhibitors into orthopedic joints” (DePuy Mitek, Inc., priority 2007, dated 2015).

Like-named read-outs stand apart in the source and are kept apart here.

For data set [1], the system named is IL-1β-stimulated PGE2 synthesis, bovine chondrocyte pellets / ARC tissues. As to the kind of experiment: chondrocyte pellet culture model: PGE2. The conditions noted are these: 10 ng/ml IL-1β. The data set is classed as cell-based. The text has this: Calf articular cartilage was obtained from the knee joints of eight to twelve month old animals and was processed within twenty-four hours after sacrifice. After removal of muscle and ligament, the cartilage was kept moist using phosphate buffer solution (PBS) to prevent tissue dehydration, and was aseptically peeled off from subchondral bone with a scalpel, and the cartilage pieces were further minced into smaller pieces (˜0.3-0.5×˜0.2-0.5 cm cubes). […] Chondrocytes were then enzymatically isolated from the tissue by incubation for overnight at 37° C. with gentle agitation in 0.2% collagenase in Dulbecco's modified eagle media (DMEM). After removal of tissue debris by filtration through cell strainer and the residual collagenase by 3× wash in PBS, cells were finally resuspended at a density of 2.5×10^6 cells/ml in chondrocyte medium. A 1 ml aliquot of the cell suspension was dispensed into either a 15 ml Falcon centrifuge tube or a 96 deep-well plate and centrifuged at 2000×g for five minutes. The chondrocyte pellets were incubated at 37° C. in a humidified atmosphere of 5% CO2 for two to three weeks with a medium change every other day.
As an alternative to using calf articular cartilage, a commercial Alginate Recovered Chondrocytes (ARC) system was also used (Articular Engineering, LLC (Northbrook, Ill.)). Use of the commercial system cut down on labor and time in producing chondrocyte pellet. This system produced cartilaginous tissue in vitro using bovine chondrocytes. The first step consisted of culturing chondrocytes in alginate under conditions optimal for the formation of a cell-associated matrix (CM). The second step allowed these cells with their CM, after recovery, to rapidly form and become integrated into a solid mass of cartilage on a porous insert within two weeks. This tissue is rich in cells surrounded by a cell-associated matrix that is degraded rapidly when the cells are exposed to IL-1. ARC tissues in 3 mm punches at delivery were first dispensed into a 96 deep-well plate, one punch per well, for compound treatment. The subsequent procedures were the same as those used for the chondrocyte pellets.
Chondrocyte pellets were washed once with 1 ml of Chondrocyte Stimulation Medium and equilibrated in the same medium at room temperature for fifteen to thirty minutes. Compounds were dissolved in H2O, Ethanol or dimethyl sulfoxide (DMSO) (10^−2 M) according to suppliers' instructions and further diluted with Chondrocyte Stimulation Medium to the required concentrations. DMSO concentrations in the culture media should not exceed 1%; this concentration of DMSO has no effect on cartilage proteoglycan metabolism in response to cytokines.
The pellets were first treated with compounds at desired concentrations at 37° C. for one hour and then incubated for three to five days in the absence or presence of 10 ng/ml of IL-1β. At the end of the incubation, media and pellets were harvested and frozen for further analysis. Pellets were also fixed as needed in 4% (w/v) paraformaldehyde in PBS for histology analysis.
Prostaglandin E2 (PGE2) was measured with a STAT-Prostaglandin E2 EIA ELISA kit (Cayman Biochemicals). This assay is based on the competition between PGE2 from 50 μl samples and a PGE2-alkaline phosphatase conjugate for a limited amount of PGE2 monoclonal antibody in a reaction volume of 150 μl at room temperature for one hour. The antibody-PGE2 complex bound to a goat polyclonal anti-mouse IgG that had been previously attached to the well. After washing to remove any unbound reagents, para-nitrophenyl phosphate (pNPP) was added to the well. The product of this enzymatic reaction absorbs strongly at 412 nm. Because of the large range in response to IL-1β and other cytokines, PGE2 values were converted to log scale prior to doing t-tests.

Data set [2] concerns rabbit anterior cruciate ligament transection (ACLT) model of osteoarthritis. As to the kind of experiment: ACLT model, therapeutic dosing regimen (Example IX). To be noted: for Trochlear Groove Erosion of Cartilage / Tibial Plateau Presence of Clefts (Lateral) / Tibial Plateau Presence of Clefts (Medial) / Trochlear Groove Thickening / Femoral Condyle Presence of Clefts / Femoral Condyle % Surface Area Erosion (Lateral) / Femoral Condyle % Surface Area Erosion (Medial) / Tibial Plateau % Surface Area Erosion (Lateral) / Tibial Plateau % Surface Area Erosion (Medial) / Tibial Plateau # of Osteophytes (Lateral) / Tibial Plateau # of Osteophytes (Medial) / Trochlear Groove # of Osteophytes / Trochlear Groove Osteophyte Size / Femoral Condyle Depth of Erosion (Lateral) / Femoral Condyle Depth of Erosion (Medial) / Tibial Plateau Depth of Erosion (Lateral) / Tibial Plateau Depth of Erosion (Medial) / Combination Scores: All Trochlear Groove Effects / Combination Scores: All Condylar Effects / Combination Scores: All Tibial Plateau Effects / Combination Scores: All Cartilage Effects / Combination Scores: Total Score: Therapeutic Dosing Regimen; for Trochlear Groove Erosion of Cartilage / Tibial Plateau Presence of Clefts (Lateral) / Tibial Plateau Presence of Clefts (Medial) / Trochlear Groove Thickening / Femoral Condyle Presence of Clefts / Femoral Condyle % Surface Area Erosion (Lateral) / Femoral Condyle % Surface Area Erosion (Medial) / Tibial Plateau % Surface Area Erosion (Lateral) / Tibial Plateau % Surface Area Erosion (Medial) / Tibial Plateau # of Osteophytes (Lateral) / Tibial Plateau # of Osteophytes (Medial) / Trochlear Groove # of Osteophytes / Trochlear Groove Osteophyte Size / Femoral Condyle Depth of Erosion (Lateral) / Femoral Condyle Depth of Erosion (Medial) / Tibial Plateau Depth of Erosion (Lateral) / Tibial Plateau Depth of Erosion (Medial): mean gross score; for Trochlear Groove Erosion of Cartilage: 0 = 0, 1 < 25%, 2 = 25-50%, 3 > 50%; for Tibial Plateau Presence of Clefts (Lateral) / Tibial Plateau Presence of Clefts (Medial): 0 = Absent, 1 = Present; for Trochlear Groove Thickening: 0 = Normal, 1 = Thickened Areas; for Femoral Condyle Presence of Clefts: 0 = absent, 1 = unicondylar, 2 = both condyles; for Femoral Condyle % Surface Area Erosion (Lateral) / Femoral Condyle % Surface Area Erosion (Medial) / Tibial Plateau % Surface Area Erosion (Lateral) / Tibial Plateau % Surface Area Erosion (Medial): scale 0-5; for Tibial Plateau # of Osteophytes (Lateral) / Tibial Plateau # of Osteophytes (Medial) / Trochlear Groove # of Osteophytes / Trochlear Groove Osteophyte Size: scale 0 = 0; for Tibial Plateau # of Osteophytes (Lateral) / Tibial Plateau # of Osteophytes (Medial) / Trochlear Groove # of Osteophytes: 1 = 1, 2 = 2, 3 ≧ 2; for Trochlear Groove Osteophyte Size: 1 ≦ 1 mm, 2 = 1-2 mm, 3 > 2 mm; for Femoral Condyle Depth of Erosion (Lateral) / Femoral Condyle Depth of Erosion (Medial) / Tibial Plateau Depth of Erosion (Lateral) / Tibial Plateau Depth of Erosion (Medial): scale 0 = no damage to 3 = severe; for Combination Scores: All Trochlear Groove Effects / Combination Scores: All Condylar Effects / Combination Scores: All Tibial Plateau Effects / Combination Scores: All Cartilage Effects / Combination Scores: Total Score: mean; for Combination Scores: All Trochlear Groove Effects: 0-10, 10 = max damage; for Combination Scores: All Condylar Effects: 0-18, 18 = max damage; for Combination Scores: All Tibial Plateau Effects: 0-24, 24 = max damage; for Combination Scores: All Cartilage Effects: 0-40, 40 = max damage; for Combination Scores: Total Score: 0-52, 52 = max damage. Format: in vivo. On the procedure:
130 Female New Zealand white rabbits underwent ACLT on the right knee. Intra-articular injections were administered to the operated knee once per week for five weeks beginning either one or six weeks after the ACLT. All animals were euthanized one week after the administration of the fifth injection. Gross observations were made on the knee joints according to a predetermined grading scale. The stifle joints were removed. Samples were preserved in 10% neutral buffered formalin. The stifle joints were photographed using high-resolution photography.
The ACLT was performed according to the ACLT model discussed above. Animals were group housed in pens on the floor and left untreated for six weeks to allow osteoarthritis to develop. Then, once weekly for five weeks, intra-articular injections were administered. One week following the last injection, the animals were sacrificed. The total in-life portion of this regimen was eleven weeks post-ACLT.
The study design consisted of an n=10 per group. A total of 160 μl was injected at each administration.
At the time of sacrifice the following parameters were evaluated grossly (the scale follows in parenthesis):
Each parameter was given a score. The combination of all parameters gave a Total Score (0-52). Additionally, combinations of the three subsets of data yielded scores for All Trochlear Groove Effects (0-10), All Condylar Effects (0-18) and All Tibial Plateau Effects (0-24). Lastly, an […] was obtained. The score for […] ranges from 0 to 40. The grades that compose this parameter are trochlear groove thickness and erosion, all the grades in All Condylar Effects, and all grades listed under Tibial Plateau. A higher score indicates more damage to the joint. A lower score indicates less damage or more cartilage preservation in the joint. Individual results for each parameter assessed were tabulated.

Data set [3] is classed as physicochemical. The protocol:
JNJ 3026582 (RWJ 67657) was gamma irradiated on dry ice at a dose of 15 kgray. Then the sterile drug was aseptically mixed with ORTHOVISC® in the concentrations of 10 μg/mL and 100 μg/mL. Drug content uniformity was confirmed by reverse phase HPLC. There was approximately 100% drug stability.
JNJ 17089540 (RWJ 669307) was gamma irradiated on dry ice at a dose of 15 kgray. The sterile drug as aseptically mixed with ORTHOVISC® in the concentrations of 1 ug/uL and 10 ug/uL. Drug content uniformity was confirmed by reverse phase HPLC. There was approximately 100% drug stability.
Suprofen was gamma irradiated on dry ice at dose of 15 kgray. The sterile drug was aseptically mixed with ORTHOVISC® in the concentration of 1.3 ug/uL. Drug content uniformity at time of preparation and stability of 4 months at 4° C. was confirmed by reverse phase HPLC that there was around 100% drug stability.

For `CC(=O)Oc1cccc2c1C(=O)c1c(OC(C)=O)cc(C(=O)O)cc1C2=O` [Diacerein, reference compound], the “PGE2 synthesis” value in data set [1] (diacerein at 5.4 μM, rhein at 0.35 μM) was “no effect”.

Take `OCCC#Cc1nc(-c2ccc(F)cc2)c(-c2ccncc2)n1CCCc1ccccc1` [JNJ 3026582 (RWJ 67657), 4-[4-(4-fluorophenyl)-1-(3-phenylpropyl)-5-(4-pyridinyl)-1H-imidazol-2-yl]-3-butyn-1-ol]: in data set [2], the “Trochlear Groove Erosion of Cartilage” value is reported as 1.9, the “Tibial Plateau Presence of Clefts (Lateral)” value came to 0, the “Tibial Plateau Presence of Clefts (Medial)” value was 0 and the “Trochlear Groove Thickening” value was found to be 0.3. Moreover, in data set [2], the “Femoral Condyle Presence of Clefts” value is listed as 0, the “Femoral Condyle % Surface Area Erosion (Lateral)” value worked out at 2.4, the “Femoral Condyle % Surface Area Erosion (Medial)” value was determined as 0.7 and the “Tibial Plateau % Surface Area Erosion (Lateral)” value worked out at 1.3. In data set [2], the “Tibial Plateau % Surface Area Erosion (Medial)” value was determined as 0.4, the “Tibial Plateau # of Osteophytes (Lateral)” value was 0.9, the “Tibial Plateau # of Osteophytes (Medial)” value worked out at 1.4 and the “Trochlear Groove # of Osteophytes” value came out at 2.9. Also, in data set [2], the “Trochlear Groove Osteophyte Size” value is recorded as 2.9, the “Femoral Condyle Depth of Erosion (Lateral)” value turned out to be 1.7, the “Femoral Condyle Depth of Erosion (Medial)” value is reported as 0.8 and the “Tibial Plateau Depth of Erosion (Lateral)” value worked out at 0.9. For the same compound, in data set [2], the “Tibial Plateau Depth of Erosion (Medial)” value is 0.2, the “Combination Scores: All Trochlear Groove Effects” value is on record as 8.0, the “Combination Scores: All Condylar Effects” value came to 5.6 and the “Combination Scores: All Tibial Plateau Effects” value was determined as 5.3. In data set [2], the “Combination Scores: All Cartilage Effects” value is 10.8 and the “Combination Scores: Total Score” value turned out to be 18.9. Further, in data set [3], the drug stability result is “approximately 100%”.

For `C[C@H](Nc1nccc(-c2c(-c3ccc(F)cc3)nc3nc(N)ccn23)n1)c1ccccc1` [JNJ 7583979 (RWJ 351958)], the “PGE2 synthesis” value in data set [1] (ARC) is reported as “significantly inhibited”.

Consider `CC(C(=O)O)c1ccc(C(=O)c2cccs2)cc1` (stereo not drawn) [Suprofen, reference compound], for which, in data set [2], the “Trochlear Groove Erosion of Cartilage” value turned out to be 1.9, the “Tibial Plateau Presence of Clefts (Lateral)” value came out at 0, the “Tibial Plateau Presence of Clefts (Medial)” value was 0 and the “Trochlear Groove Thickening” value is 0. In data set [2], the “Femoral Condyle Presence of Clefts” value is 0, the “Femoral Condyle % Surface Area Erosion (Lateral)” value amounted to 1.3, the “Femoral Condyle % Surface Area Erosion (Medial)” value was found to be 0.3 and the “Tibial Plateau % Surface Area Erosion (Lateral)” value was found to be 1.6. Also, in data set [2], the “Tibial Plateau % Surface Area Erosion (Medial)” value is given as 0, the “Tibial Plateau # of Osteophytes (Lateral)” value came to 0.8, the “Tibial Plateau # of Osteophytes (Medial)” value came out at 1.6 and the “Trochlear Groove # of Osteophytes” value stood at 3.0. In data set [2], the “Trochlear Groove Osteophyte Size” value is on record as 3.0, the “Femoral Condyle Depth of Erosion (Lateral)” value came to 1.3, the “Femoral Condyle Depth of Erosion (Medial)” value is 0.2 and the “Tibial Plateau Depth of Erosion (Lateral)” value stood at 1.4. Besides, in data set [2], the “Tibial Plateau Depth of Erosion (Medial)” value is listed as 0, the “Combination Scores: All Trochlear Groove Effects” value was 7.9, the “Combination Scores: All Condylar Effects” value came out at 3.0 and the “Combination Scores: All Tibial Plateau Effects” value is 5.4. Also, in data set [2], the “Combination Scores: All Cartilage Effects” value came out at 7.9 and the “Combination Scores: Total Score” value was found to be 16.3. Also, in data set [2] (therapeutic dosing regimen), the “All Cartilage Effects, mean score” value is on record as 7.9+1.5; the “all condylar effects, mean score” value was determined as 3.0 ± 1.0; the “depth of the erosion on the lateral femoral condyle, mean score” value was 1.3 ± 0.4; the “depth of the erosion on the medial femoral condyle, mean score” value is reported as 0.2 ± 0.1. In data set [2] (therapeutic dosing regimen), the “percent surface area erosion of the lateral femoral condyle, mean score” value was found to be 1.3 ± 0.4 and the “percent surface area erosion of the medial femoral condyle, mean score” value came to 0.3 ± 0.2. Moreover, the drug stability entry in data set [3] (4 months, 1.3 ug/uL) is recorded as “around 100%”.
